In brackets after ≈: the same amount, converted by molar mass.
What was measured:
Assay type in all cases: cell-based
[1] = tested on: Mannheimia haemolytica MH 6357 (M7/2, reference strain, cattle infection strain); test: MIC, broth-microdilution (CLSI VET01-A4), strain MH 6357; settings: Mannheimia haemolytica strain MH 6357, broth-microdilution; unit assumed
In short: (§1)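 MIC is the lowest compound concentration showing no visible growth by eye, read from doubling-dilution microdilution trays. Method followed CLSI VET01-A4, with interpretation under CLSI VET01-S3.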

[2] = tested on: Mannheimia haemolytica MH 6374 (ATCC 33396, reference strain); test: MIC, broth-microdilution (CLSI VET01-A4), strain MH 6374; settings: Mannheimia haemolytica strain MH 6374, broth-microdilution; unit assumed
In short: as §1

[3] = tested on: Mannheimia haemolytica MH 10720 (154, BRD field isolate); test: MIC, broth-microdilution (CLSI VET01-A4), strain MH 10720; settings: Mannheimia haemolytica strain MH 10720, broth-microdilution; unit assumed
In short: as §1

[4] = tested on: Mannheimia haemolytica MH 12587 (1071, BRD field isolate, macrolide-resistance: erm+, E+); test: MIC, broth-microdilution (CLSI VET01-A4), strain MH 12587; settings: Mannheimia haemolytica strain MH 12587, broth-microdilution; unit assumed
In short: as §1

[5] = tested on: Mannheimia haemolytica MH 13065 (XB0446-6003.9, BRD field isolate); test: MIC, broth-microdilution (CLSI VET01-A4), strain MH 13065; settings: Mannheimia haemolytica strain MH 13065, broth-microdilution; unit assumed
In short: as §1

[6] = tested on: Mannheimia haemolytica MH 13093 (XB0472-6014.1, BRD field isolate); test: MIC, broth-microdilution (CLSI VET01-A4), strain MH 13093; settings: Mannheimia haemolytica strain MH 13093, broth-microdilution; unit assumed
In short: as §1

[7] = tested on: Pasteurella multocida PM 6267 (P 2225 (L386), reference strain, mouse infection strain); test: MIC, broth-microdilution (CLSI VET01-A4), strain PM 6267; settings: Pasteurella multocida strain PM 6267, broth-microdilution; unit assumed
In short: as §1

[8] = tested on: Pasteurella multocida PM 6391 (ATCC 43137, reference strain); test: MIC, broth-microdilution (CLSI VET01-A4), strain PM 6391; settings: Pasteurella multocida strain PM 6391, broth-microdilution; unit assumed
In short: as §1

[9] = tested on: Pasteurella multocida PM 10775 (080130003051, BRD field isolate); test: MIC, broth-microdilution (CLSI VET01-A4), strain PM 10775; settings: Pasteurella multocida strain PM 10775, broth-microdilution; unit assumed
In short: as §1

[10] = tested on: Pasteurella multocida PM 12080 (IV102277-0093, BRD field isolate); test: MIC, broth-microdilution (CLSI VET01-A4), strain PM 12080; settings: Pasteurella multocida strain PM 12080, broth-microdilution; unit assumed
In short: as §1

| MIC PM 6267 [7] [µg/mL] | MIC PM 6391 [8] [µg/mL] | MIC PM 10775 [9] [µg/mL] | MIC PM 12080 [10] [µg/mL] | Structure (SMILES) | MIC MH 6357 [1] [µg/mL] | MIC MH 6374 [2] [µg/mL] | MIC MH 10720 [3] [µg/mL] | MIC MH 12587 [4] [µg/mL] | MIC MH 13065 [5] [µg/mL] | MIC MH 13093 [6] [µg/mL] |
| --- | --- | --- | --- | --- | --- | --- | --- | --- | --- | --- |
| 0.4 (≈ 0.747 µM) | 0.8 (≈ 1.49 µM) | ≤ 0.1 | 0.4 (≈ 0.747 µM) | CC(C)([C@H](NC(=O)c1ccc(C#Cc2ccc(CNCc3cccnc3)nc2)cc1)C(=O)NO)S(C)(=O)=O [Compound 373] | 1.6 (≈ 2.99 µM) | 3.1 (≈ 5.79 µM) | 0.4 (≈ 0.747 µM) | 6.3 (≈ 11.8 µM) | 3.1 (≈ 5.79 µM) | 3.1 (≈ 5.79 µM) |
| ≤ 0.1 | ≤ 0.1 | ≤ 0.1 | ≤ 0.1 | CC(C)([C@H](NC(=O)c1ccc(C#Cc2ccc(CNCc3ccco3)s2)cc1)C(=O)NO)S(C)(=O)=O [Compound 321] | ≤ 0.1 | ≤ 0.1 | ≤ 0.1 | 0.4 (≈ 0.755 µM) | 0.2 (≈ 0.378 µM) | 0.2 (≈ 0.378 µM) |
| ≤ 0.1 | ≤ 0.1 | ≤ 0.1 | ≤ 0.1 | CC(C)(O)[C@H](NC(=O)c1ccc(C#Cc2ccc(CNCc3ccco3)cc2)cc1)C(=O)NO [Compound 231] | 0.4 (≈ 0.867 µM) | 0.2 (≈ 0.433 µM) | ≤ 0.1 | 0.8 (≈ 1.73 µM) | 0.2 (≈ 0.433 µM) | 0.4 (≈ 0.867 µM) |
| 0.4 (≈ 0.85 µM) | 1.6 (≈ 3.4 µM) | ≤ 0.1 | 0.8 (≈ 1.7 µM) | CC[C@H](C)[C@H](NC(=O)c1ccc(C#Cc2ccc(CNCc3ccccn3)cc2)cc1)C(=O)NO [Compound 180] | 0.8 (≈ 1.7 µM) | 1.6 (≈ 3.4 µM) | 0.2 (≈ 0.425 µM) | 3.1 (≈ 6.59 µM) | 1.6 (≈ 3.4 µM) | 1.6 (≈ 3.4 µM) |
| 0.8 (≈ 1.59 µM) | 0.8 (≈ 1.59 µM) | ≤ 0.1 | 0.2 (≈ 0.398 µM) | CSC(C)(C)[C@H](NC(=O)c1ccc(C#Cc2ccc(CNCc3ccccc3)nc2)cc1)C(=O)NO [Compound 339] | 0.8 (≈ 1.59 µM) | 1.6 (≈ 3.18 µM) | ≤ 0.1 | 1.6 (≈ 3.18 µM) | 0.8 (≈ 1.59 µM) | 1.6 (≈ 3.18 µM) |
| 1.6 (≈ 4.05 µM) | 6.3 (≈ 15.9 µM) | 0.2 (≈ 0.506 µM) | 3.1 (≈ 7.84 µM) | CCCNCc1ccc(C#Cc2ccc(C(=O)N[C@@H](CO)C(=O)NO)cc2)cc1 [Compound 152] | 3.1 (≈ 7.84 µM) | 25 (≈ 63.2 µM) | 3.1 (≈ 7.84 µM) | 12.5 (≈ 31.6 µM) | 12.5 (≈ 31.6 µM) | 12.5 (≈ 31.6 µM) |

Second part, the molecule before the results:

| Structure (SMILES) | MIC PM 6267 [7] [µg/mL] | MIC PM 6391 [8] [µg/mL] | MIC PM 10775 [9] [µg/mL] | MIC PM 12080 [10] [µg/mL] | MIC MH 6357 [1] [µg/mL] | MIC MH 6374 [2] [µg/mL] | MIC MH 10720 [3] [µg/mL] | MIC MH 12587 [4] [µg/mL] | MIC MH 13065 [5] [µg/mL] | MIC MH 13093 [6] [µg/mL] |
| --- | --- | --- | --- | --- | --- | --- | --- | --- | --- | --- |
| COCC(C)NCc1ccc(C#Cc2ccc(C(=O)N[C@H](C(=O)NO)C(C)C)cc2)cc1 (some centres unmarked) [Compound 198] | ≤ 0.1 | 0.4 (≈ 0.914 µM) | ≤ 0.1 | 0.2 (≈ 0.457 µM) | 3.1 (≈ 7.09 µM) | 6.3 (≈ 14.4 µM) | 0.8 (≈ 1.83 µM) | 12.5 (≈ 28.6 µM) | 3.1 (≈ 7.09 µM) | 6.3 (≈ 14.4 µM) |
| CC(C)(O)C(NC(=O)c1ccc(C#Cc2ccc(CNCc3cccs3)cc2)cc1)C(=O)NO (centres unmarked) [Compound 232] | ≤ 0.1 | ≤ 0.1 | ≤ 0.1 | ≤ 0.1 | 0.4 (≈ 0.838 µM) | ≤ 0.1 | ≤ 0.1 | 0.4 (≈ 0.838 µM) | ≤ 0.1 | 0.2 (≈ 0.419 µM) |
| CC(C)(O)[C@H](NC(=O)c1ccc(C#Cc2ccc(CNCc3ncccn3)nc2)cc1)C(=O)NO [Compound 363] | 1.6 (≈ 3.37 µM) | 3.1 (≈ 6.53 µM) | 0.4 (≈ 0.843 µM) | 1.6 (≈ 3.37 µM) | 6.3 (≈ 13.3 µM) | 6.3 (≈ 13.3 µM) | 3.1 (≈ 6.53 µM) | 25 (≈ 52.7 µM) | 12.5 (≈ 26.3 µM) | 25 (≈ 52.7 µM) |
| CC(C)(C(NC(=O)c1ccc(C#Cc2ccc(CNCc3ccccc3)cc2)cc1)C(=O)NO)[N+](=O)[O-] (centres unmarked) [Compound 276] | ≤ 0.1 | 0.4 (≈ 0.799 µM) | ≤ 0.1 | ≤ 0.1 | 0.8 (≈ 1.6 µM) | 0.8 (≈ 1.6 µM) | ≤ 0.1 | 0.8 (≈ 1.6 µM) | 0.4 (≈ 0.799 µM) | 0.8 (≈ 1.6 µM) |
| CC(C)(C(NC(=O)c1ccc(C#Cc2ccc(CNCc3ccco3)cc2)cc1)C(=O)NO)[N+](=O)[O-] (centres unmarked) [Compound 287] | 0.8 (≈ 1.63 µM) | 0.4 (≈ 0.815 µM) | ≤ 0.1 | ≤ 0.1 | 0.4 (≈ 0.815 µM) | 0.8 (≈ 1.63 µM) | ≤ 0.1 | 1.6 (≈ 3.26 µM) | 0.8 (≈ 1.63 µM) | 0.8 (≈ 1.63 µM) |
